Reference: US7939509B2, “Partial and full agonists of A1 adenosine receptors” (Gilead Sciences, Inc., priority 2002, dated 2011)
Values joined by “and” are separate entries in the source; they are usually repeats but may differ in a detail not shown here. Equal values may be shown once.

Experiments:
[1] = test system: awake rats; test: Anti-lipolytic effect: serum free fatty acids (FFA) in overnight-fasted awake rats; assay type: in vivo, rat
Method: All experimental procedures were performed under a protocol approved by the Institutional Animal Care and Use Committee of CV Therapeutics, Inc., and in accordance with the recommendations set forth in the Guide for the Care and Use of Laboratory Animals published by the National Research Council. Male Sprague-Dawley rats (225-250 gm) with either one or two indwelling catheters (carotid and jugular) were purchased from Charles River Laboratories (Wilmington, Mass.). Animals were housed 1 per cage in a room maintained on a 12 h light/dark cycle (light on 06.00-18.00 h) under constant temperature (22-25° C.) and with ad libitum access to food and water. The anti-lipolytic effects of Compound A were studied in awake rats. Animals were fasted overnight before experimental use. On the day of the experiment, animals were put in metabolic cages and left undisturbed to acclimate to the environment for 1-2 hrs. An infusion set (21 G×¾″, 0.8×19 mm U.T.W., 3½″, 9 cm tubing, volume 0.15 ml) was connected to the arterial catheter for blood sampling. A 1% sodium citrate saline solution was used to flush the lines. A pre-treatment blood sample was obtained from each animal to determine baseline values for FFA and TG. Compound A was given via oral gavage, sc injection, iv injection, or iv infusion, as described, for each different series of experiments. Blood samples were collected into serum separator tubes (Becton Dickinson, Franklin Lakes, N.J.) at pre-determined times, Blood was allowed to clot, and then centrifuged at 8000 rpm for 4 min at 4° C. The serum was stored at −80° C. and was thawed at 4° C. for determinations of FFA and TG contents. […] Sodium citrate and Triton WR1339 were purchased from Sigma (St. Louis, Mo.). Nicotinic acid and PEG 400 were purchased from VWR (by EMD Chemicals). Triton WR 1339 was diluted in warm saline (˜37° C.) with frequent vortexing. […] Compound A was dissolved in PEG 400, and then diluted with distilled water to make a 20% PEG drug solution. Serum FFA and TGs were measured using commercial kits from Wako Chemicals, Richmond, Va. Glucose and Insulin were measured using commercial kits from Wako Chemicals USA (Richmond, Va.). All data are reported as mean±SEM. Statistical analysis of data from experiments with 2 treatment groups was performed using the unpaired Student's t-test. Two way analysis of variance followed by Bonferroni's test was used for multiple comparisons.

[2] = test system: awake rats; test: Insulin dose response to reduce FFA with and without Compound A in awake rats; assay type: in vivo, rat
Method: FIG. 6 graphically represents how Compound A potentates the effect of insulin in reducing FFA levels. Shown are the dose response curves for the effect of insulin to reduce FFA obtained in the absence and presence of Compound A (0.5 mg/kg) in awake rats. Both insulin and Compound A were given via IP injection. Each data point is the mean±SEM of the maximal (peak effect) percent decrease in FFA levels from baseline from three to five rats.
The anti-lipolytic effects of Compound A were studied in awake rats. Animals were fasted overnight before experimental use. On the day of the experiment, animals were put in metabolic cages and left undisturbed to acclimate to the environment for 1-2 hrs. An infusion set (21 G×¾″, 0.8×19 mm U.T.W., 3½″, 9 cm tubing, volume 0.15 ml) was connected to the arterial catheter for blood sampling. A 1% sodium citrate saline solution was used to flush the lines. A pre-treatment blood sample was obtained from each animal to determine baseline values for FFA and TG. Compound A was given via oral gavage, sc injection, iv injection, or iv infusion, as described, for each different series of experiments. Blood samples were collected into serum separator tubes (Becton Dickinson, Franklin Lakes, N.J.) at pre-determined times, Blood was allowed to clot, and then centrifuged at 8000 rpm for 4 min at 4° C. The serum was stored at −80° C. and was thawed at 4° C. for determinations of FFA and TG contents.
The effect of insulin (0.005-1 U/kg) to reduce serum FFA was determined in the absence and presence of a single dose (0.5 mg/kg) of Compound A (FIG. 6). Baseline FFA levels before insulin administration in vehicle and Compound A treated groups were 0.84±0.01 and 0.92±0.02 mM, respectively. […] The insulin dose response to reduce FFA levels was then repeated in the presence of Compound A (0.5 mg/kg). Compound A alone (0.5 mg/kg) caused an 18% decrease in FFA levels. The doses of insulin that cause 50% decrease (ED50) in FFA levels in the absence and presence of Compound A were 0.4 and 0.1 U/kg, respectively.

[3] = cited from earlier work

## O=C(O)c1cccnc1 [nicotinic acid, reference compound]
[1]; 10 mg/kg iv bolus
  maximal decrease in FFA levels: 57±5%
[1]; 10 mg/kg iv bolus, from 0.85±0.09, p<0.001
  FFA level after treatment: 0.35 ± 0.01 nM
[1]; after iv bolus
  rebound increase of FFA levels: seen

## insulin
[2]; in the absence of Compound A
  dose of insulin that causes 50% decrease (ED50) in FFA levels: 0.4 (0.3916-0.4208, 95% Cl) U/kg and 0.4 U/kg
[2]; in the presence of Compound A (0.5 mg/kg IP), 0.5 mg/kg
  dose of insulin that causes 50% decrease (ED50) in FFA levels: 0.1 (0.0935-0.133) U/kg and 0.1 U/kg
[2]; insulin 0.005-1 U/kg IP, without Compound A
  lowering of FFA levels by insulin: up to 67±1%

## Nc1ncnc2c1ncn2[C@@H]1O[C@H](CO)[C@@H](O)[C@H]1O [adenosine]
[3]
  half-life: less than 10 sec
